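These data come from cells grown in 96-well plates and exposed to compound for 48 hours at five concentrations. At the GI50, growth is halved. TGI: concentration producing complete growth inhibition.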
Experiments:
Assay in all cases: inhibition of tumour cell growth, NCI panel, 48 h
[1] = test system: HL-60(TB) leukemia
[2] = test system: CAKI-1 renal
[3] = test system: MDA-MB-231 breast
[4] = test system: OVCAR-4 ovarian
[5] = test system: SK-MEL-2 melanoma
[6] = test system: NCI-H522 lung
[7] = test system: MDA-MB-435
[8] = test system: ACHN renal
[9] = test system: SN12C renal
[10] = test system: U251 CNS

Row | Compound | GI50 [1] [nM] | TGI [1] [µM] | GI50 [2] [nM] | TGI [2] [µM] | GI50 [3] [nM] | TGI [3] [µM] | GI50 [4] [nM] | TGI [4] [µM] | GI50 [5] [nM] | TGI [5] [µM] | GI50 [6] [nM] | TGI [6] [µM] | GI50 [7] [nM] | TGI [7] [µM] | GI50 [8] [nM] | TGI [8] [µM] | GI50 [9] [nM] | TGI [9] [µM] | GI50 [10] [nM] | TGI [10] [µM]
1 | COc1cc(NS(=O)(=O)c2ccc(-c3cnc(C4CC4)o3)cc2)ccc1F | 247 | 6.86 | 408 | 30.6 | 1360 | 19.5 | 2050 | 36.2 | 706 | 23.6 | 316 | 11.8 | 49.8 | 0.634 | 594 | 46 | 546 | 18.1 | 572 | 18.1
2 | CN1C(=O)c2ccccc2NC(=O)C12O[C@@H]2c1cccc(O)c1 (some centres not stated) | – | > 100 | – | > 100 | – | > 100 | – | > 100 | – | > 100 | – | > 100 | – | > 100 | – | > 100 | – | > 100 | – | > 100
3 | COc1cc2c(c(OC)c1OC)-c1c(cc3c(c1OC)OCO3)C1OC2C(C)C1C (configuration not stated) (tested in a mixture with another compound) | – | > 100 | – | > 100 | – | > 100 | – | > 100 | – | > 100 | – | > 100 | – | > 100 | – | > 100 | – | > 100 | – | > 100
4 | COc1cc2c3c(n(CCNCCCNCCn4c5c(c6cc(OC)c(OC)cc6c4=O)C(=O)c4ccccc4-5)c(=O)c2cc1OC)-c1ccccc1C3=O | < 15.4 | 0.334 | > 100000 | > 100 | 178 | 2.1 | 1600 | 20.3 | 1040 | 15.2 | < 42.3 | 6.66 | 1020 | 2.55 | 693 | > 56.3 | < 16.6 | 1.59 | 73.3 | 1.49
5 | COC(=O)[C@H](Cc1c[nH]c2ccccc12)NC(=O)[C@@H](OC)[C@@H]1Cc2cc3cc(OC4CC(OC5CC(O)C(O)C(C)O5)C(O)C(C)O4)c(C)c(O)c3c(O)c2C(=O)[C@H]1OC1CC(OC2CC(OC3CC(C)(O)C(O)C(C)O3)C(O)C(C)O2)C(O)C(C)O1 (some centres not stated) | 11.9 | 0.386 | 345 | > 16.5 | 9.75 | 0.603 | 12.5 | > 16.5 | 4.9 | 0.0145 | 5.09 | 0.0552 | 7.84 | 0.0394 | 47.5 | 0.907 | 6.24 | 7.42 | 6.42 | > 16.5
6 | COc1ccc(C2SCC(=O)N2NC(=O)Nc2c(C)nc3ccccn23)cc1 (configuration not stated) | > 100000 | > 100 | > 100000 | > 100 | 15800 | 34.7 | > 100000 | > 100 | 41800 | > 100 | 32800 | 95.4 | > 100000 | > 100 | 21900 | 47.3 | 54400 | > 100 | 13800 | 27.9
7 | c1cc2c(ncc3cscc32)s1 | – | > 100 | – | > 100 | – | > 100 | – | > 100 | – | > 100 | – | > 100 | – | > 100 | – | > 100 | – | > 100 | – | > 100
8 | Cc1ccc2c(c1)CN(C(=O)CCC(=O)OCc1ccccc1)c1ccc(C)cc1CN2C(=O)CCC(=O)OCc1ccccc1 | – | > 100 | – | > 100 | – | > 100 | – | > 100 | – | > 100 | – | > 100 | – | > 100 | – | > 100 | – | > 100 | – | > 100
9 | CCOC(=O)c1c(C)nc2c(c1N)/C(=C/c1ccc(OC)cc1)C(=O)N2Cc1ccc(F)cc1 | 140 | 0.474 | 250 | 1.31 | 236 | 0.76 | 392 | 6.25 | 238 | 0.729 | 125 | 0.296 | 201 | 0.469 | 137 | 0.529 | 244 | 0.75 | 197 | 0.508
10 | COc1ccc(-n2cc(-c3cc(OC)c(OC)c(OC)c3)[nH]c2=O)cc1Cl | > 100000 | > 100 | > 100000 | > 100 | 34900 | > 100 | > 100000 | > 100 | > 100000 | > 100 | > 100000 | > 100 | > 100000 | > 100 | > 100000 | > 100 | > 100000 | > 100 | 37700 | > 100
11 | Cc1nc(-c2ccccc2)c(-c2ccccc2)s1 | – | 28.5 | – | 62.3 | – | 69.6 | – | > 100 | – | 32.8 | – | 37.7 | – | 69.1 | – | 97.9 | – | > 100 | – | 29.5
12 | Nc1ncn(C2CC(O)C(CO)O2)c(=O)n1 (configuration not stated) | – | 103 | – | > 375 | – | > 343 | – | > 375 | – | 232 | – | 218 | – | > 98.3 | – | > 375 | – | > 375 | – | > 307
13 | O=C(/C=C\n1cnc(-c2cc(C(F)(F)F)cc(C(F)(F)F)c2)n1)NNc1cnccn1 | 46.7 | – | 41.4 | 12 | 57.7 | 14.8 | 36.4 | 14 | 72.9 | 2.84 | 128 | 6.42 | 53.3 | 1.24 | 113 | 13 | 356 | 15.4 | 51.1 | 12.4
14 | CCc1oc2ccccc2c1C(=O)c1cc(I)c(O)c(I)c1 | 1620 | 8.74 | 2300 | 10.8 | 5640 | 20.8 | 5070 | 18.1 | 7420 | 28 | 1840 | 12.9 | 327 | 1.4 | 4870 | 18.2 | 4180 | 17.8 | 4400 | 18.3
15 | N#Cc1cccc(NC(=O)c2cc(-c3ccc(F)cc3F)ccc2O)c1 | 2170 | 5.6 | 2310 | 10.1 | 2010 | 5.23 | 2110 | 23 | 1760 | 5.49 | 1640 | 12.1 | 2380 | 9.32 | 2560 | 7.89 | 2100 | 8.32 | 2790 | > 100
16 | COc1cc2c(c(OC)c1OC)C(=O)[C@@H]1c3ccc([N+](=O)[O-])cc3C(=O)N(CCCBr)[C@H]21 | 64200 | > 100 | 2000 | 14.2 | 2990 | 25.3 | 17100 | 64.2 | 19700 | 59.8 | 4180 | 25.2 | 2790 | 14.7 | 15200 | 58.5 | 7670 | 29.9 | 23300 | > 100
17 | Cc1ccc(C(=O)Nc2ccc(CN3CCN(C)CC3)c(C(F)(F)F)c2)cc1C#Cc1cnc(N)c2ccccc12 | 491 | 2.41 | 328 | 1.05 | 519 | 1.22 | 219 | 1.33 | 367 | 1.55 | 465 | 1.36 | 214 | 0.835 | 133 | 0.631 | 191 | 0.917 | 348 | 1.12
18 | CS(=O)(=O)c1cc(=O)c2ccccc2s1 | – | 6.45 | – | 4.49 | – | 31.4 | – | 7.8 | – | 30.4 | – | 3.32 | – | 24.8 | – | 5.68 | – | 22.2 | – | 37.6
19 | CCCCCN(CCCCC)CC(O)c1ccc(Cl)c2ccccc12 (configuration not stated) | 5500 | 20.9 | 3350 | 18.6 | 10800 | 26.4 | 12200 | 72.5 | 17400 | 38.2 | 14400 | 32.1 | 6430 | 45 | 10300 | 22.5 | 10600 | 24.6 | 12300 | 28.6
20 | C=C1CC[C@@H]2[C@](C)(COC(C)=O)[C@H](OC(C)=O)CC[C@@]2(C)[C@@H]1CC(Nc1ccc(S(=O)(=O)Nc2ncccn2)cc1)C1=CCOC1=O (some centres not stated) | 1300 | 3.64 | 1740 | 4.04 | 1950 | 3.93 | 1850 | 5.26 | 2360 | 7.2 | 498 | 2.07 | 1580 | 3.77 | 1720 | 3.27 | 430 | 1.96 | 1740 | 3.28
21 | Fc1ccc(-c2nn3ncccc3c2-c2ccnc(Nc3ccc4c(c3)OCCO4)n2)cc1 | 5010 | 13.8 | 891 | > 17.2 | 1220 | 6.01 | 6890 | > 25 | 4450 | 9.71 | 3560 | 10.7 | 4900 | > 21.5 | 1160 | > 25 | 4680 | > 25 | 7720 | > 25
22 | COC(=O)c1c(C)[nH]c(/C=C2\N=C(c3ccc[nH]3)C=C2OC)c1C | 164 | 2.33 | – | – | 169 | 1.27 | 571 | 2.44 | 328 | 1.27 | 367 | 2.44 | 108 | 1.46 | 189 | 1.43 | 389 | > 75.4 | 117 | 2.49
23 | O=C(O)[C@@H]1CCCCN1Cc1cc2cc3c(cc2c2cc(OCc4ccccc4)ccc12)OCO3 | > 100000 | > 100 | 3600 | 33.7 | 1900 | 6.21 | – | – | 15600 | 37.4 | 4890 | 18.4 | 3400 | 17.5 | 2730 | 10.3 | 2000 | 7.8 | 3800 | 15.2
24 | CC1(C)N=C(N)N=C(N)N1c1ccc(OCc2ccc(S(=O)(=O)F)c(Cl)c2)c(Cl)c1 | 1350 | > 100 | – | – | > 100000 | > 100 | 17500 | > 100 | > 100000 | > 100 | 3280 | > 100 | 558 | > 100 | 5480 | > 100 | 558 | > 100 | 2900 | > 100
25 | Cn1c2ccccc2c2c3[nH]c(=O)[nH]c(=O)c3c3c4ccccc4n(C)c3c21 | > 100000 | > 100 | – | – | 5410 | 31.4 | – | – | 4500 | 19.7 | 1900 | 12.8 | 3050 | > 100 | 1330 | 6.62 | 4210 | > 100 | 3020 | 13
26 | COC(=O)C12C3C4C1C1C2C3C41NC(=O)c1csc([C@@H](C[C@H](C(C)C)N(C)C(=O)[C@@H](NC(=O)[C@H]2CCCCN2C)C2CC2)OC(C)=O)n1 (some centres not stated) | 3.56 | 0.00777 | – | – | 41.4 | 10.9 | 500 | > 33.3 | 110 | > 33.3 | 4.01 | 1.27 | < 3.33 | 0.00992 | 90.3 | > 33.3 | 24.2 | > 33.3 | 52.7 | > 33.3
